# According to article PMC5439667, “Thermal stability and kinetic constants for 129 variants of a family 1 glycoside hydrolase reveal that enzyme activity and stability can be separately designed” (PLoS ONE, 2017):
# Target: BglB (Paenibacillus polymyxa, UniProt P22505)
# Assay: Michaelis-Menten kinetics of […]-nitrophenol release (as in the previous study)
# Type: biochemical
# Conditions: wild type, batched replicates re-measured here; conditions of the kinetic assay not printed in the main text
# Sequence of BglB (P22505 whole entry): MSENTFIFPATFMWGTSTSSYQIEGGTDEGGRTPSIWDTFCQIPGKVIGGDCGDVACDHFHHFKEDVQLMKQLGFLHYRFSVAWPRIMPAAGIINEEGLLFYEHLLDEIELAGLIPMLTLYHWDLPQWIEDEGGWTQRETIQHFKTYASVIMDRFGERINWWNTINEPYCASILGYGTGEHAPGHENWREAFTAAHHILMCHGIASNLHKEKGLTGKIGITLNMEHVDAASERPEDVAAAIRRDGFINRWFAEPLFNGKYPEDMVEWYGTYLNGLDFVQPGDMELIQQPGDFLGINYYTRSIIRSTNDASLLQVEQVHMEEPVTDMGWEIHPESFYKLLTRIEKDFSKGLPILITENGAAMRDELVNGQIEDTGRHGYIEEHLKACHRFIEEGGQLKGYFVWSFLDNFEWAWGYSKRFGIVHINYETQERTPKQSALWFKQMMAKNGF
structure (smiles),measurement,value
O=[N+]([O-])c1ccc(O[C@@H]2O[C@H](CO)[C@@H](O)[C@H](O)[C@H]2O)cc1 [pNPG],KM,batched replicates of the native BglB sequence
